Data reported in paper PMC8286840, “Identifying SARS-CoV-2 antiviral compounds by screening for small molecule inhibitors of Nsp3 papain-like protease” (Biochemical Journal, 2021).
Like-named read-outs stand apart in the source and are kept apart here. Where a SMILES comes first, the peptide text is derived from it.

What was measured:
[1] = biological target: T1, SARS-CoV-2 PLpro (nsp3 1564–1878) (Severe acute respiratory syndrome coronavirus 2, UniProt P0DTD1); experiment: biochemical; parameters: FRET-quenched peptide (Pro3) cleavage by PLpro, 10 min pre-incubation, slope over 20 min, normalised to no-compound control; settings: read-out: % of control remaining
[2] = biological target: T1, SARS-CoV-2 PLpro (nsp3 1564–1878); experiment: biochemical; parameters: FRET-quenched peptide (Pro3) cleavage by PLpro, 10 min pre-incubation, slope over 20 min, normalised to no-compound control; settings: read-out: % of control remaining; remark: listed apart in the source

**Q.** Which results are given for `C#C[C@]1(O)C=C[C@H]2[C@@H]3CCC4=CC(=O)CC[C@@H]4[C@H]3CC[C@@]21CC` [Gestodene]?
**A.** remaining activity at 1.25 µM ([1]; Well no.=5260, low concentration screen): 93.5%; remaining activity at 3.75 µM ([2]; Well no.=5260, high concentration screen): 96.8%

**Q.** How did the remaining activity at 1.25 µM ([1]; Well no.=1792, low concentration screen) turn out when `C#C[C@]1(O)CC[C@H]2[C@@H]3CCC4=CC(=O)CCC4=C3C=C[C@@]21CC` [Gestrinone] was run?
**A.** 101%

**Q.** And the remaining activity at 3.75 µM ([2]; Well no.=1792, high concentration screen)?
**A.** 99.3%

**Q.** What does the source list for `Oc1cc(O)c(Cl)cn1` [Gimeracil]?
**A.** remaining activity at 1.25 µM ([1]; Well no.=5056, low concentration screen): 101%; remaining activity at 3.75 µM ([2]; Well no.=5056, high concentration screen): 104%

**Q.** What does the source list for `CCCCC[C@H](O)CC(=O)CCc1ccc(O)c(OC)c1` [Gingerol]?
**A.** remaining activity at 1.25 µM ([1]; Well no.=3319, low concentration screen): 97%; remaining activity at 3.75 µM ([2]; Well no.=3319, high concentration screen): 101%

**Q.** `C[C@@H]1C(=O)O[C@H]2C[C@@]34[C@H]5C[C@@H](C(C)(C)C)[C@]36[C@@H](OC(=O)[C@@H]6O)O[C@@]4(C(=O)O5)[C@]21O` [Ginkgolide A] was tested. Which remaining activity at 1.25 µM ([1]; Well no.=1908, low concentration screen) did it give?
**A.** 98.7%

**Q.** And the remaining activity at 1.25 µM ([1]; Well no.=3613, low concentration screen)?
**A.** 106%

**Q.** And the remaining activity at 3.75 µM ([2]; Well no.=1908, high concentration screen)?
**A.** 96.1%

**Q.** What about the remaining activity at 3.75 µM ([2]; Well no.=3613, high concentration screen) of the same compound?
**A.** 104%

**Q.** `C[C@@H]1C(=O)O[C@H]2[C@H](O)[C@@]34[C@H]5C[C@@H](C(C)(C)C)[C@]36[C@@H](OC(=O)[C@@H]6O)O[C@@]4(C(=O)O5)[C@@]12O` [Ginkgolide B] was tested. Which remaining activity at 1.25 µM ([1]; Well no.=3321, low concentration screen) did it give?
**A.** 97.9%

**Q.** And the remaining activity at 1.25 µM ([1]; Well no.=6484, low concentration screen)?
**A.** 95.6%

**Q.** And the remaining activity at 3.75 µM ([2]; Well no.=3321, high concentration screen)?
**A.** 101%

**Q.** And the remaining activity at 3.75 µM ([2]; Well no.=6484, high concentration screen)?
**A.** 92.7%

**Q.** Which results are given for `CC(C)=CCC[C@](C)(O[C@@H]1O[C@H](CO[C@@H]2O[C@@H](CO)[C@H](O)[C@H]2O)[C@@H](O)[C@H](O)[C@H]1O)[C@H]1CC[C@]2(C)[C@@H]1[C@H](O)C[C@@H]1[C@@]3(C)CC[C@H](O[C@@H]4O[C@H](CO)[C@@H](O)[C@H](O)[C@H]4O[C@@H]4O[C@H](CO)[C@@H](O)[C@H](O)[C@H]4O)C(C)(C)[C@@H]3CC[C@]12C` [Ginsenoside Rc]?
**A.** remaining activity at 1.25 µM ([1]; Well no.=6436, low concentration screen): 93.3%; remaining activity at 3.75 µM ([2]; Well no.=6436, high concentration screen): 92.6%

**Q.** Which results are given for `CC(C)=CCC[C@](C)(O)[C@H]1CC[C@]2(C)[C@@H]1[C@H](O)C[C@@H]1[C@@]3(C)CC[C@H](O)C(C)(C)[C@@H]3[C@@H](O[C@@H]3O[C@H](CO)[C@@H](O)[C@H](O)[C@H]3O)C[C@]12C` [Ginsenoside Rh1]?
**A.** remaining activity at 1.25 µM ([1]; Well no.=6546, low concentration screen): 98.2%; remaining activity at 3.75 µM ([2]; Well no.=6546, high concentration screen): 93.7%

**Q.** `CC(C)=CCC[C@](C)(O)[C@H]1CC[C@]2(C)[C@@H]1[C@H](O)C[C@@H]1[C@@]3(C)CC[C@H](O[C@@H]4O[C@H](CO)[C@@H](O)[C@H](O)[C@H]4O)C(C)(C)[C@@H]3CC[C@]12C` [Ginsenoside Rh2] was tested. Which remaining activity at 1.25 µM ([1]; Well no.=6590, low concentration screen) did it give?
**A.** 98.4%

**Q.** What about the remaining activity at 3.75 µM ([2]; Well no.=6590, high concentration screen) of the same compound?
**A.** 102%

**Q.** With `C[C@]12CC[C@H](O)C[C@H]1CC[C@@H]1[C@@H]2CC[C@]2(C)[C@@H](C3=CC(=O)OC3)[C@@H](O)C[C@]12O` [Gitoxigenin] as the compound, how does the remaining activity at 1.25 µM [1] read?
**A.** 105%

**Q.** And the remaining activity at 3.75 µM [2]?
**A.** 104%

**Q.** For `CC(C)(C)[C@@H]1NC(=O)O[C@@H]2CCC[C@H]2OC/C=C/C(F)(F)c2nc3ccccc3nc2O[C@@H]2C[C@@H](C(=O)N[C@]3(C(=O)NS(=O)(=O)C4(C)CC4)C[C@H]3C(F)F)N(C2)C1=O` [Glecaprevir], which remaining activity at 1.25 µM ([1]; Well no.=8512, low concentration screen) is on record?
**A.** 103%

**Q.** What about the remaining activity at 3.75 µM ([2]; Well no.=8512, high concentration screen) of the same compound?
**A.** 93.8%

**Q.** How did the remaining activity at 1.25 µM ([1]; Well no.=475, low concentration screen) turn out when `COc1ccc(Cl)cc1C(=O)NCCc1ccc(S(=O)(=O)NC(=O)NC2CCCCC2)cc1` [Glibenclamide] was run?
**A.** 101%

**Q.** What about the remaining activity at 3.75 µM ([2]; Well no.=475, high concentration screen) of the same compound?
**A.** 102%

**Q.** `CCC1=C(C)CN(C(=O)NCCc2ccc(S(=O)(=O)NC(=O)N[C@H]3CC[C@H](C)CC3)cc2)C1=O` [Glimepiride] was tested. Which remaining activity at 1.25 µM ([1]; Well no.=2178, low concentration screen) did it give?
**A.** 96.4%

**Q.** What about the remaining activity at 3.75 µM ([2]; Well no.=2178, high concentration screen) of the same compound?
**A.** 97%

**Q.** Which remaining activity at 1.25 µM ([1]; Well no.=3323, low concentration screen) does the source give for `CN1C(=O)[C@]23CC4=CC=C[C@H](O)[C@H]4N2C(=O)[C@@]1(CO)SS3` [Gliotoxin] here?
**A.** 94.1%

**Q.** What about the remaining activity at 3.75 µM ([2]; Well no.=3323, high concentration screen) of the same compound?
**A.** 95.5%

**Q.** How did the remaining activity at 1.25 µM ([1]; Well no.=700, low concentration screen) turn out when `Cc1cnc(C(=O)NCCc2ccc(S(=O)(=O)NC(=O)NC3CCCCC3)cc2)cn1` [Glipizide] was run?
**A.** 91.5%

**Q.** And the remaining activity at 1.25 µM ([1]; Well no.=1605, low concentration screen)?
**A.** 96.2%

**Q.** What about the remaining activity at 3.75 µM ([2]; Well no.=700, high concentration screen) of the same compound?
**A.** 94.3%

**Q.** What about the remaining activity at 3.75 µM ([2]; Well no.=1605, high concentration screen) of the same compound?
**A.** 93%

**Q.** With `COc1ccc2c(c1)C(=O)N(CCc1ccc(S(=O)(=O)NC(=O)NC3CCCCC3)cc1)C(=O)C2(C)C` [Gliquidone] as the compound, how does the remaining activity at 1.25 µM ([1]; Well no.=5369, low concentration screen) read?
**A.** 97.2%

**Q.** And the remaining activity at 3.75 µM ([2]; Well no.=5369, high concentration screen)?
**A.** 95.2%

**Q.** With `N[C@@H](CCC(=O)N[C@@H](CS)C(=O)NCC(=O)O)C(=O)O` [Glutathione] as the compound, how does the remaining activity at 1.25 µM ([1]; Well no.=4049, low concentration screen) read?
**A.** 99.4%

**Q.** What about the remaining activity at 3.75 µM ([2]; Well no.=4049, high concentration screen) of the same compound?
**A.** 100%

**Q.** For `COc1ccc(Cl)cc1C(=O)NCCc1ccc(S(=O)(=O)NC(=O)NC2CCCCC2)cc1` [Glyburide], which remaining activity at 1.25 µM ([1]; Well no.=1806, low concentration screen) is on record?
**A.** 96.5%

**Q.** And the remaining activity at 3.75 µM ([2]; Well no.=1806, high concentration screen)?
**A.** 97.3%

**Q.** What does the source list for `NCC(=O)O` [Glycine]?
**A.** remaining activity at 1.25 µM ([1]; Well no.=7699, low concentration screen): 106%; remaining activity at 3.75 µM ([2]; Well no.=7699, high concentration screen): 108%

**Q.** What does the source list for `COc1cc2c(=O)c(-c3ccc(O)cc3)coc2cc1O` [Glycitein]?
**A.** remaining activity at 1.25 µM ([1]; Well no.=6248, low concentration screen): 98.2%; remaining activity at 3.75 µM ([2]; Well no.=6248, high concentration screen): 101%

**Q.** `C[C@H](CCC(=O)NCC(=O)O)[C@H]1CC[C@H]2[C@@H]3[C@H](O)C[C@@H]4C[C@H](O)CC[C@]4(C)[C@H]3CC[C@]12C` [Glycochenodeoxycholic acid] was tested. Which remaining activity at 1.25 µM ([1]; Well no.=7020, low concentration screen) did it give?
**A.** 105%

**Q.** And the remaining activity at 1.25 µM ([1]; Well no.=7257, low concentration screen)?
**A.** 103%

**Q.** And the remaining activity at 3.75 µM ([2]; Well no.=7020, high concentration screen)?
**A.** 102%

**Q.** With `C[C@H](CCC(=O)NCC(=O)O)[C@H]1CC[C@H]2[C@@H]3[C@H](O)C[C@@H]4C[C@H](O)CC[C@]4(C)[C@H]3C[C@H](O)[C@]12C` [Glycocholic acid] as the compound, how does the remaining activity at 1.25 µM ([1]; Well no.=7068, low concentration screen) read?
**A.** 106%

**Q.** And the remaining activity at 1.25 µM ([1]; Well no.=7165, low concentration screen)?
**A.** 104%

**Q.** What about the remaining activity at 3.75 µM ([2]; Well no.=7068, high concentration screen) of the same compound?
**A.** 105%

**Q.** What about the remaining activity at 3.75 µM ([2]; Well no.=7165, high concentration screen) of the same compound?
**A.** 101%

**Q.** What does the source list for `O=C(O)CO` [Glycolic acid]?
**A.** remaining activity at 1.25 µM ([1]; Well no.=6981, low concentration screen): 97.8%; remaining activity at 3.75 µM ([2]; Well no.=6981, high concentration screen): 98.4%

**Q.** Which results are given for `C[N+]1(C)CCC(OC(=O)C(O)(c2ccccc2)C2CCCC2)C1` (centres unmarked) [Glycopyrrolate]?
**A.** remaining activity at 1.25 µM ([1]; Well no.=7471, low concentration screen): 102%; remaining activity at 3.75 µM ([2]; Well no.=7471, high concentration screen): 103%

**Q.** For `C[C@H](CCC(=O)NCC(=O)O)[C@H]1CC[C@H]2[C@@H]3[C@@H](O)C[C@@H]4C[C@H](O)CC[C@]4(C)[C@H]3CC[C@]12C` [Glycoursodeoxycholic acid], which remaining activity at 1.25 µM ([1]; Well no.=7311, low concentration screen) is on record?
**A.** 108%

**Q.** What about the remaining activity at 3.75 µM ([2]; Well no.=7311, high concentration screen) of the same compound?
**A.** 106%

**Q.** With `NCC(=O)NCC(=O)O` [Glycylglycine] (H-Gly-Gly-OH) as the compound, how does the remaining activity at 1.25 µM ([1]; Well no.=6641, low concentration screen) read?
**A.** 100%

**Q.** And the remaining activity at 3.75 µM ([2]; Well no.=6641, high concentration screen)?
**A.** 102%

**Q.** Which remaining activity at 1.25 µM ([1]; Well no.=5196, low concentration screen) does the source give for `CC1(C)[C@@H](O[C@H]2O[C@H](C(=O)O)[C@@H](O)[C@H](O)[C@H]2O[C@@H]2O[C@H](C(=O)O)[C@@H](O)[C@H](O)[C@H]2O)CC[C@]2(C)[C@H]3C(=O)C=C4[C@@H]5C[C@@](C)(C(=O)O)CC[C@]5(C)CC[C@@]4(C)[C@]3(C)CC[C@@H]12` [Glycyrrhizic acid] here?
**A.** 106%

**Q.** What about the remaining activity at 3.75 µM ([2]; Well no.=5196, high concentration screen) of the same compound?
**A.** 93.8%

**Q.** For `COc1cc2c(c(OC)c1OC)-c1c(cc3c(c1OC)OCO3)C[C@H](C)[C@](C)(O)C2` [Gomisin A], which remaining activity at 1.25 µM ([1]; Well no.=5817, low concentration screen) is on record?
**A.** 103%

**Q.** What about the remaining activity at 3.75 µM ([2]; Well no.=5817, high concentration screen) of the same compound?
**A.** 104%
